Patent US8557864B2, “Agent having neurotrophic factor-like activity” (Nagoya Industrial Science Research Institute, priority 2007, dated 2013)

Key:
mice = test: Novel object recognition test on mice; assay type: in vivo; conditions: 100 and 500 μg/kg intraperitoneally, healthy mice, test started after 2 hours
Procedure: A promotion activity of brain functions due to the compound 8 was examined using a novel object recognition test. The novel object recognition test is a method of evaluating memory and learning abilities from behaviors after showing a “familiar object” and a “novel object” to mice, utilizing the fact that the mice take exploration behaviors (behaviors such as coming closer to or smelling an object) when they find the “novel object”.
The compound 8 was dissolved in 0.1% DMSO to adjust a concentration so as to have each dose of 100 and 500 μg/kg and intraperitoneally injected to 6 mice in every administration example each in a dose of 0.25 mL. In a 0 μg/kg weight administration example of a control, 0.25 mL of a phosphoric acid buffer containing 0.1% DMSO was intraperitoneally injected. The compound 8 was administered to mice and the novel object recognition test was performed after 2 hours. That is, a mouse was put in a place where two identical objects were present for 15 minutes to let the mouse memorize the two objects (these two objects will be “familiar objects”). After the elapse of 1 day, an exploration behavior test in which the mouse was put in a place where the “familiar objects and “novel objects” were present was carried out for 10 minutes FIG. 33 show the results. Significance tests were performed in a Student's t-test (*) and a Turkey's test (##). […]

MAP kinase = test: Phosphorylated MAP kinase amount in cortex of frontal lobe and hippocampus of stressed mice; assay type: in vivo; conditions: 24 hours after 3 weeks of stress with 20, 100, 500 μg/kg, at least one administration example
Procedure: After 24 hours from completion of stress for 3 weeks in the same method as described in Example 2, mice administered with the compound 8 in doses of 0, 20, 100 and 500 μg/kg respectively at the same time as stress and non-stressed mice administered with only a phosphoric acid buffer containing 0.1% DMSO were sacrificed and the cortexes of frontal lobes and hippocampi were excised respectively, and thereto were added RIPA buffers in 19 times of an amount of each wet weight.
Then, sonication was performed by an ultrasonic grinder until tissues cannot be seen, centrifuged at 12000 rpm for 15 minutes, and the supernatant was recovered to form a tissue protein extraction solution. The protein concentration of the extraction solution was measured using a BCA Protein Assay Kit (TAKARA BIO INC.), each of extraction solutions containing 3 μg for a MAP kinase and 5 μg for a phosphorylated MAP kinase was added with a ⅓ amount of a sample buffer for electrophoresis at 4 times of a concentration, and a 1/10 amount of 2-mercaptoethanol and thermally treated at 95° C. for 5 minutes and subjected to electrophoresis with a 10% SDS polyacrylic amide gel. […]

With CCCCCCC/C=C/C(=O)OCC [Compound 8, trans-2-decenoic acid ethyl ester] the “recognition index of novel objects” value (mice) was “became high” and the “phosphorylated MAP kinase amount compared to control (0 μg/kg)” value (MAP kinase) was “significantly increased”.
